Read-outs that look alike come from different tables or passages of the source.
Tests used:
[1] = target: c-Raf (Homo sapiens, UniProt P04049); assay: Luciferase-coupled chemiluminescence kinase assay (ATP consumption), c-Raf; format: biochemical
In short: (§1)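 Pre-incub. kinase […] + cpd, 30 min RT (20 mM Tris pH 7.5, 10 mM MgCl2, 0.03% TX-100, 1 mM DTT). Start w/ ATP, 3 h ambient. Luciferase-luciferin mix added and luminescence read. Total ATP use 25-60%. IC50 derived.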

[2] = target: B-Raf (Homo sapiens, UniProt P15056); assay: Luciferase-coupled chemiluminescence kinase assay (ATP consumption), B-Raf; format: biochemical
In short: as §1

[3] = read-out: cRaf-1 (inhibition indicated as IC50)
[4] = read-out: bRaf (inhibition indicated as IC50)

Sequence of c-Raf (P04049 whole entry): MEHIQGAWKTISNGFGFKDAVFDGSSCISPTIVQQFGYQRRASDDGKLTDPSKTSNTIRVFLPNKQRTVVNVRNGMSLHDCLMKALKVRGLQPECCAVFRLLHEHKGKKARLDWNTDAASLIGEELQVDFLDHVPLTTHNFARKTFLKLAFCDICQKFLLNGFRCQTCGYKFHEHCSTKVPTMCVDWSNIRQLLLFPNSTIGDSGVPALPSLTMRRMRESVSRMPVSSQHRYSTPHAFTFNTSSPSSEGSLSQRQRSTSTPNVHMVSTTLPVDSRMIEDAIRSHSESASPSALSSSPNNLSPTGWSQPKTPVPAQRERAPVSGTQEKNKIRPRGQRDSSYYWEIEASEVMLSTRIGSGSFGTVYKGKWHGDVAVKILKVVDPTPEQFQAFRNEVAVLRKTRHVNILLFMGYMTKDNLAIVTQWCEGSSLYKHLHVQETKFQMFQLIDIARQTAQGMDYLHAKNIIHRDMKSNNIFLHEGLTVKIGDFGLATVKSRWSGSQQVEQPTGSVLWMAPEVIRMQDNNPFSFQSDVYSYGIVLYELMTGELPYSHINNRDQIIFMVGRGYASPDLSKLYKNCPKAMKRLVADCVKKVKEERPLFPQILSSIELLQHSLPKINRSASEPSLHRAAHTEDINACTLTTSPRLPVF
Sequence of B-Raf (P15056 whole entry): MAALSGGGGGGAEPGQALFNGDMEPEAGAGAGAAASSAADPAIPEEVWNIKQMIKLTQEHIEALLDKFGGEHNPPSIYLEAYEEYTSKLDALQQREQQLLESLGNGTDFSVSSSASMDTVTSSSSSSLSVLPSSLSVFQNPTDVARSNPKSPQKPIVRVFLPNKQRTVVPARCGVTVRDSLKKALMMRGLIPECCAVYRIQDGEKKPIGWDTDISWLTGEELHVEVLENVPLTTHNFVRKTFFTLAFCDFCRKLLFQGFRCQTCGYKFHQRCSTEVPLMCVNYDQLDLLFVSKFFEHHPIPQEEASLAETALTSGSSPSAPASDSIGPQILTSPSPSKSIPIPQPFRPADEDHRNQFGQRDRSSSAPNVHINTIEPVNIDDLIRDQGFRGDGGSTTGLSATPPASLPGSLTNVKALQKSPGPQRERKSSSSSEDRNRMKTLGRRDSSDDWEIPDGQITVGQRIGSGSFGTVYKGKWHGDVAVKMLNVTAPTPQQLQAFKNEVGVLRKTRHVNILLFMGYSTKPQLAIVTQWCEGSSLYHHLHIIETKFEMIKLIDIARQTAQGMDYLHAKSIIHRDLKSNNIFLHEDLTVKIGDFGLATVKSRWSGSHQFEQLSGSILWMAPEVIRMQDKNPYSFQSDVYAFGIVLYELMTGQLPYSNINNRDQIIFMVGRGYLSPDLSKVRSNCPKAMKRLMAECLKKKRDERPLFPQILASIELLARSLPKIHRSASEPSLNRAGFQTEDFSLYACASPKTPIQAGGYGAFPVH

SMILES	IC50 ([1]; read-out: cRaf-1 IC50) [nM]	IC50 ([2]; read-out: bRaf IC50) [nM]	IC50 [1, 3] [nM]	IC50 [2, 4] [nM]
O=C1c2ccccc2C(O)(c2ccc3[nH]c(NC(=O)C(O)(C(F)(F)F)C(F)(F)F)nc3c2)N1Cc1ccccc1 (stereo not shown) [Entry 208, 3,3,3-trifluoro-2-hydroxy-N-{5-[1-hydroxy-3-oxo-2-(phenylmethyl)-2,3-dihydro-1H-isoindol-1-yl]-1H-benzimidazol-2-yl}-2-(trifluoromethyl)propanamide]	1000 to 10000	1000 to 10000		
COC(=O)Nc1nc2ccc(C(=O)c3ccccc3C(=O)Nc3cccc(Cl)c3)cc2[nH]1 [Entry 395, methyl {6-[(2-{[(3-chlorophenyl)amino]carbonyl}phenyl)carbonyl]-1H-benzimidazol-2-yl}carbamate]			< 100	< 100
COC(=O)Nc1nc2cc(C3(O)c4ccccc4C(=O)N3C(C)c3cc(C)cs3)ccc2[nH]1 (stereo not shown) [Entry 209, methyl (5-{1-hydroxy-2-[1-(4-methyl-2-thienyl)ethyl]-3-oxo-2,3-dihydro-1H-isoindol-1-yl}-1H-benzimidazol-2-yl)carbamate]	< 100	< 100		
COC(=O)Nc1nc2cc(C3(O)c4ccccc4C(=O)N3c3cccc(C4CCNCC4)c3)ccc2[nH]1 (stereo not shown) [Entry 256, methyl {5-[1-hydroxy-3-oxo-2-(3-piperidin-4-ylphenyl)-2,3-dihydro-1H-isoindol-1-yl]-1H-benzimidazol-2-yl}carbamate]	100 to 1000	100 to 1000		
COC(=O)Nc1nc2ccc(C(=O)c3ccccc3C(=O)Nc3ccc(F)c(C)c3)cc2[nH]1 [Entry 408, methyl {6-[(2-{[(4-fluoro-3-methylphenyl)amino]carbonyl}phenyl)carbonyl]-1H-benzimidazol-2-yl}carbamate]			< 100	< 100
COC(=O)Nc1nc2cc(C3(O)c4ccccc4C(=O)N3C(C)c3cccs3)ccc2[nH]1 (stereo not shown) [Entry 173, methyl (5-{1-hydroxy-3-oxo-2-[1-(2-thienyl)ethyl]-2,3-dihydro-1H-isoindol-1-yl}-1H-benzimidazol-2-yl)carbamate]	< 100	< 100		
CCN(c1ccccc1)c1cccc(N2C(=O)c3ccccc3C2(O)c2ccc3[nH]c(NC(=O)OC)nc3c2)c1 (stereo not shown) [Entry 328, methyl [5-(2-{3-[ethyl(phenyl)amino]phenyl}-1-hydroxy-3-oxo-2,3-dihydro-1H-isoindol-1-yl)-1H-benzimidazol-2-yl]carbamate]			100 to 1000	100 to 1000
COC(=O)Nc1nc2cc(C3(O)c4ccccc4C(=O)N3Cc3ccsc3)ccc2[nH]1 (stereo not shown) [Entry 206, methyl {5-[1-hydroxy-3-oxo-2-(3-thienylmethyl)-2,3-dihydro-1H-isoindol-1-yl]-1H-benzimidazol-2-yl}carbamate]	< 100	< 100		
COC(=O)Nc1nc2cc(C3(O)c4ccccc4C(=O)N3c3cccc(Cc4ccccc4)c3)ccc2[nH]1 (stereo not shown) [Entry 232, methyl (5-{1-hydroxy-3-oxo-2-[3-(phenylmethyl)phenyl]-2,3-dihydro-1H-isoindol-1-yl}-1H-benzimidazol-2-yl)carbamate]	< 100	< 100		
COC(=O)Nc1nc2cc(C3(O)c4ccccc4C(=O)N3C(C)c3ccc(Br)s3)ccc2[nH]1 (stereo not shown) [Entry 249, methyl (5-{2-[1-(5-bromo-2-thienyl)ethyl]-1-hydroxy-3-oxo-2,3-dihydro-1H-isoindol-1-yl}-1H-benzimidazol-2-yl)carbamate]	< 100	< 100		
O=C(Nc1nc2cc(C3(O)c4ccccc4C(=O)N3Cc3ccccc3)ccc2[nH]1)OCC1CCNCC1 (stereo not shown) [Entry 152, piperidin-4-ylmethyl {5-[1-hydroxy-3-oxo-2-(phenylmethyl)-2,3-dihydro-1H-isoindol-1-yl]-1H-benzimidazol-2-yl}carbamate]	100 to 1000	< 100		
CSc1ccccc1CN1C(=O)c2ccccc2C1(O)c1ccc2c(c1)NC(=O)CO2 (stereo not shown) [Entry 57, 6-(1-hydroxy-2-{[2-(methylthio)phenyl]methyl}-3-oxo-2,3-dihydro-1H-isoindol-1-yl)-2H-1,4-benzoxazin-3(4H)-one]	≥ 10000	≥ 10000		
O=C(CCCOCc1ccccc1)Nc1nc2cc(C3(O)c4ccccc4C(=O)N3Cc3ccccc3)ccc2[nH]1 (stereo not shown) [Entry 262, N-{5-[1-hydroxy-3-oxo-2-(phenylmethyl)-2,3-dihydro-1H-isoindol-1-yl]-1H-benzimidazol-2-yl}-4-[(phenylmethyl)oxy]butanamide]	< 100	< 100		
CCc1cccc(N2C(=O)c3ccccc3C2(O)c2ccc3c(c2)NC(=O)CO3)c1 (stereo not shown) [Entry 76, 6-[2-(3-ethylphenyl)-1-hydroxy-3-oxo-2,3-dihydro-1H-isoindol-1-yl]-2H-1,4-benzoxazin-3(4H)-one]	100 to 1000	100 to 1000		
COC(=O)Nc1nc2cc(C(=O)c3ccccc3NC(=O)OCc3ccccc3)ccc2[nH]1 [Entry 270, methyl (5-{[2-({[(phenylmethyl)oxy]carbonyl}amino)pheny]carbonyl}-1H-benzimidazol-2-yl)carbamate]			1000 to 10000	1000 to 10000

The remaining lines, values ahead:

IC50 ([1]; read-out: cRaf-1 IC50) [nM]	IC50 ([2]; read-out: bRaf IC50) [nM]	IC50 [1, 3] [nM]	IC50 [2, 4] [nM]	SMILES
< 100	< 100			CCc1cccc(N2C(=O)c3ccccc3C2(O)c2ccc3[nH]c(NC(=O)OC)nc3c2)c1 (stereo not shown) [Entry 178, methyl {5-[2-(3-ethylphenyl)-1-hydroxy-3-oxo-2,3-dihydro-1H-isoindol-1-yl]-1H-benzimidazol-2-yl}carbamate]
		< 100	< 100	COC(=O)Nc1nc2ccc(C3(O)c4ccccc4C(=O)N3c3cccc(C)c3F)cc2[nH]1 (stereo not shown) [Entry 390, methyl {6-[2-(2-fluoro-3-methylphenyl)-1-hydroxy-3-oxo-2,3-dihydro-1H-isoindol-1-yl]-1H-benzimidazol-2-yl}carbamate]
< 100	100 to 1000			COC(=O)Nc1nc2cc(C3(O)c4ccccc4C(=O)N3c3cccnc3)ccc2[nH]1 (stereo not shown) [Entry 242, methyl [5-(1-hydroxy-3-oxo-2-pyridin-3-yl-2,3-dihydro-1H-isoindol-1-yl)-1H-benzimidazol-2-yl]carbamate]
		< 100	< 100	O=C(Nc1nc2ccc(C3(O)c4ccccc4C(=O)N3c3cccc(Cl)c3F)cc2[nH]1)OCC1CCCN2CCCCC12 (stereo not shown) [Entry 304, octahydro-2H-quinolizin-1-ylmethyl {6-[2-(3-chloro-2-fluorophenyl)-1-hydroxy-3-oxo-2,3-dihydro-1H-isoindol-1-yl]-1H-benzimidazol-2-yl}carbamate]
		< 100	< 100	COC(=O)Nc1nc2cc(C3(O)c4ccccc4C(=O)N3c3cc(F)cc(Br)c3F)ccc2[nH]1 (stereo not shown) [Entry 307, methyl {5-[2-(3-bromo-2,5-difluorophenyl)-1-hydroxy-3-oxo-2,3-dihydro-1H-isoindol-1-yl]-1H-benzimidazol-2-yl}carbamate]
		< 100	< 100	COC(=O)Nc1nc2cc(C3(O)c4ccccc4C(=O)N3c3cc(C)ccc3OC)ccc2[nH]1 (stereo not shown) [Entry 382, methyl (5-{1-hydroxy-2-[5-methyl-2-(methyloxy)phenyl]-3-oxo-2,3-dihydro-1H-isoindol-1-yl}-1H-benzimidazol-2-yl)carbamate]
		< 100	< 100	C#Cc1cccc(N2C(=O)c3ccccc3C2(O)c2ccc3[nH]c(NC(=O)OC)nc3c2)c1C (stereo not shown) [Entry 372, methyl {5-[2-(3-ethynyl-2-methylphenyl)-1-hydroxy-3-oxo-2,3-dihydro-1H-isoindol-1-yl]-1H-benzimidazol-2-yl}carbamate]
		< 100	< 100	C#Cc1cccc(N2C(=O)c3ccccc3C2(O)c2ccc3[nH]c(Nc4ncccn4)nc3c2)c1F (stereo not shown) [Entry 364, 2-(3-ethynyl-2-fluorophenyl)-3-hydroxy-3-[2-(pyrimidin-2-ylamino)-1H-benzimidazol-5-yl]-2,3-dihydro-1H-isoindol-1-one]
		< 100	< 100	COC(=O)Nc1nc2cc(C3(O)c4ccccc4C(=O)N3c3cc(Cl)ccc3C)ccc2[nH]1 (stereo not shown) [Entry 285, methyl {5-[2-(5-chloro-2-methylphenyl)-1-hydroxy-3-oxo-2,3-dihydro-1H-isoindol-1-yl]-1H-benzimidazol-2-yl}carbamate]
1000 to 10000	1000 to 10000			COC(=O)Nc1nc2cc(C3(O)c4ccccc4C(=O)N3Cc3ccccc3OC)ccc2[nH]1 (stereo not shown) [Entry 116, methyl [5-(1-hydroxy-2-{[2-(methyloxy)phenyl]methyl}-3-oxo-2,3-dihydro-1H-isoindol-1-yl)-1H-benzimidazol-2-yl]carbamate]
		< 100	< 100	COc1cc(C)nc(Nc2nc3cc(C4(O)c5ccccc5C(=O)N4c4cccc(Cl)c4F)ccc3[nH]2)n1 (stereo not shown) [Entry 387, 2-(3-chloro-2-fluorophenyl)-3-hydroxy-3-(2-{[4-methyl-6-(methyloxy)pyrimidin-2-yl]amino}-1H-benzimidazol-5-yl)-2,3-dihydro-1H-isoindol-1-one]
		< 100	< 100	O=C(Nc1nc2cc(C3(O)c4ccccc4C(=O)N3c3cccc(Cl)c3F)ccc2[nH]1)OC1CC(F)(F)C1(F)F (stereo not shown) [Entry 325, 2,2,3,3-tetrafluorocyclobutyl {5-[2-(3-chloro-2-fluorophenyl)-1-hydroxy-3-oxo-2,3-dihydro-1H-isoindol-1-yl]-1H-benzimidazol-2-yl}carbamate]
< 100	< 100			COC(=O)Nc1nc2cc(C3(O)c4ccccc4C(=O)N3c3cccc(F)c3F)ccc2[nH]1 (stereo not shown) [Entry 184, methyl {5-[2-(2,3-difluorophenyl)-1-hydroxy-3-oxo-2,3-dihydro-1H-isoindol-1-yl]-1H-benzimidazol-2-yl}carbamate]
< 100	< 100			COC(=O)Nc1nc2cc(C3(O)c4ccccc4C(=O)N3c3cccc(N(C)C)c3)ccc2[nH]1 (stereo not shown) [Entry 258, methyl (5-{2-[3-(dimethylamino)phenyl]-1-hydroxy-3-oxo-2,3-dihydro-1H-isoindol-1-yl}-1H-benzimidazol-2-yl)carbamate]
